The values that follow are results of earlier work, collected in patent US7361789B1, “Dihydronaphthalene compounds, compositions, uses thereof, and methods for synthesis” (Amgen Inc., priority 2004, dated 2008).

The structures appear in SMILES notation. Like-named read-outs stand apart in the source and are kept apart here.

As to `C[C@@H](NCCCc1cccc(C(F)(F)F)c1)c1cccc2ccccc12` [cinacalcet], under “neutral pH”, the solubility in water entry is listed as “less than 1 μg/mL”. Besides, the solubility entry is, setting by setting: (pH is about 1) “about 0.1 mg/mL”; (pH ranges from about 3 to about 5) “about 1.6 mg/mL”.
